Test results taken from patent US10512656B2, “Compositions and methods for the treatment of lysosomal storage disorders and disorders characterized by lysosomal dysfunction” (Baylor College of Medicine, priority 2016, dated 2019).

Legend:
Cln3^Δex7-8 and WT mice = assay: Auditory brainstem response (ABR) measurements; type: in vivo, mouse; settings: 10-month-old mice, both genotypes, vs untreated age-matched controls
Protocol: ABRs were measured as previously described^69. Briefly, 10-month-old mice (n=4-6 per genotype/treatment group) were anaesthetized using an intraperitoneal injection of ketamine (100 mg/kg) and xylazine (10 mg/kg) and then immobilized in a head holder. Normal body temperature was maintained throughout the procedure by placing the mice on a heating pad. Pure tone stimuli from 4 to 48 kHz were generated using Tucker-Davis Technologies System 3 digital signal processing hardware and software (Tucker-Davis Technologies, Alachua, Fla., USA), and the intensity of the tone stimuli was calibrated using a type 4,938 ¼″ pressure-field calibration microphone (Bruel and Kjar, Nrum, Denmark). Response signals were recorded with subcutaneous needle electrodes inserted at the vertex of the scalp, the postauricular region and the back leg (ground)^69. Auditory thresholds were determined by decreasing the sound intensity of each stimulus from 90 to 10 dB in 5 dB steps, until the lowest sound intensity with reproducible and recognizable waves in the response was reached. Mean hearing thresholds±s.d. (dB SPL) were plotted as a function of stimulus frequency (kHz). Statistical analysis consisted of one-way analyses of variance to reveal overall trends accompanied by two-tailed Student's t-tests at individual frequencies to evaluate frequency-specific effects. […]

Cln3^Δex7-8 mice = assay: Storage burden (autofluorescent storage material, confocal thresholding); type: in vivo, mouse; settings: S1BF and VPM/VPL, 7- and 12-month-old Cln3^Δex7-8 mice
Protocol: To analyse the relative level of the autofluorescent storage material present in each brain region, mouse brain sections spanning the S1BF and VPM/VPL were mounted onto gelatin-chrome-coated slides and cover-slipped with Vectashield (Vector Laboratories, Peterborough, UK). Non-overlapping images from each section were captured at ×63 magnification using a Leica SP5 confocal microscope and a 488 nm excitation laser (Leica Microsystem). Thresholding image analysis was performed to determine the storage burden present in each region. During image capture, all laser parameters and calibrations were kept constant. Semiquantitative thresholding image analysis was carried out using ImageJ (NIH).

lysosomal genes = assay: Microarray expression analysis (gene ontology, GSEA) of fibroblasts; type: cell-based, human
Protocol: Total RNA from control and JNCL fibroblasts with and without trehalose treatment (100 mM, 4 days) was used to prepare complementary DNA for hybridization to the Illumina Human HT-12 V4.0 array platform. Experiments were performed in triplicate. Expression analysis was performed at the Microarray Core and Cell and Regulatory Biology, University of Texas, Houston, Tex., USA. A […] was used as a threshold for significance for assessing differential gene expression. GSEA was performed as previously described^10,11. The cumulative distribution function was constructed by performing 1,000 random gene set membership assignments. A nominal P<0.01 and an FDR<10% were used as thresholds for significance of the ES. Gene ontology analysis was performed with the web tool DAVID (https://david.ncifcrf.gov/) using default parameters. Pathway co-expression analyses were performed as previously described^8,9, and Cytoscape was used to represent graphically the expression correlation data.

LAMP1 = LAMP1 immunoblot in primary cortical astrocyte cultures; type: cell-based, mouse; settings: astrocytes from WT and Cln3^Δex7-8 mice, 100 mM trehalose 4 days
Protocol: Astrocytes were isolated from P0-1 mice and plated on poly-D-lysine coated six-well plates (BD Biosciences) in the presence of DMEM high glucose, supplemented with 10% FBS and 100 U/ml penicillin and […] streptomycin. After 7 days, the glial cell layer was removed and astrocytes were plated for treatment. An amount of 100 mM of trehalose was dissolved in the media the day after and kept for 4 days. Finally, astrocytes were collected and protein extracts were analysed by western blot assay.
Brain tissue and cultured cells were collected and lysed in RIPA buffer (50 mM Tris-HCl, ph 7.4, 1% NP40, 0.5% Na-deoxycholate, 0.1% SDS, 150 mM NaCl, 2 mM EDTA and 50 mM NaF) including a cocktail of protease (Roche) and phosphatase (SIGMA) inhibitors. Protein concentrations were measured with the bicinchoninic acid protein assay kit (Pierce, Rockford, Ill.), using bovine serum albumin as standard. Lysates were separated via SDS-polyacrylamide gel electrophoresis (PAGE) and then transferred to nitrocellulose membranes. Blots were incubated in blocking buffer (5%, w/v, dried skimmed milk in Tris-buffered saline, pH 7.4 and 0.2% Tween 20, TBST) followed by overnight incubation with appropriate antibodies diluted in blocking buffer (5% dry milk). Western blot images were acquired by LAS 4000 (GE Healthcare) and quantified using ImageJ. Images have been cropped for presentation.

HeLa cells = assay: Autophagic flux in HeLa cells (LAMP1, p62, LC3 markers); type: cell-based, human; settings: time course
Protocol: FIG. 14. Akt phosphorylates TFEB at Ser467. […] Dashed boxes (upper row) show the location of the higher power inserts (lower row). (b) Subcellular fractionation of HeLa/TFEB cells incubated with the same kinase inhibitors. (c) Multi-alignment of TFEB amino-acid sequences from the following species: Ac, Anolis carolensis; Bt, Bos taurus; Dr, Danio rerio; Fc, Felix catus; Gg, gallus gallus; Hs, Homo sapiens; La, Loxodonta africana; Mm, Mus musculus; Rn, Rattus Norvegicus; Sh, Sarcophilus harrisii; Sp, Strongylocentrotus purpuratus; XI, Xenopus laevis. A consensus logo of Akt phosphorylation sites (generated at weblogo.berkeley.edu/logo.cgi) is aligned with TFEB sequences. Position 467 refers to the human protein sequence. (d) Subcellular localization of TFEB and TFEB(S467A). (e) Expression analysis of lysosomal and autophagy genes in HeLa cells transfected with TFEB or TFEB(S467A). […]
Brain tissue and cultured cells were collected and lysed in RIPA buffer (50 mM Tris-HCl, ph 7.4, 1% NP40, 0.5% Na-deoxycholate, 0.1% SDS, 150 mM NaCl, 2 mM EDTA and 50 mM NaF) including a cocktail of protease (Roche) and phosphatase (SIGMA) inhibitors. Protein concentrations were measured with the bicinchoninic acid protein assay kit (Pierce, Rockford, Ill.), using bovine serum albumin as standard. […] Western blot images were acquired by LAS 4000 (GE Healthcare) and quantified using ImageJ. […]

## OC[C@H]1O[C@H](O[C@H]2O[C@H](CO)[C@@H](O)[C@H](O)[C@H]2O)[C@H](O)[C@@H](O)[C@@H]1O [trehalose, a-D-glucopyranosyl a-D-glucopyranoside]
Cln3^Δex7-8 and WT mice
  ABR thresholds: lower ABR thresholds
Cln3^Δex7-8 mice
  punctate autofluorescent storage material: significantly reduced
Lysosomal genes; control fibroblasts, P<0.0001
  GSEA enrichment score, TFEB direct targets with a known role in lysosomal metabolism: 0.82
  GSEA enrichment score, lysosomal genes: 0.67
Lysosomal genes; genes with at least twofold change, JNCL and control fibroblasts, trehalose 100 mM 4 days
  gene ontology fold enrichment of lysosomal metabolism genes: > 5
LAMP1
  LAMP1 levels: increased LAMP1 levels
HeLa cells
  autophagic flux: increasing autophagic flux
